Among the data in PMC8615521, “Mitochondria-Mediated Apoptosis of HCC Cells Triggered by Knockdown of Glutamate Dehydrogenase 1: Perspective for Its Inhibition through Quercetin and Permethylated Anigopreissin A” (Biomedicines, 2021) are IC50, Ki and inhibition values, retold here.

In general, IC50 refers to the concentration at which inhibition is half-maximal. A higher IC50 goes with a need for much substance. A word on the Ki: it is a measure of affinity in units of concentration, obtained from inhibition or displacement. Low values mean a stronger hold on the target, high ones a looser hold on the target. For orientation: inhibition means the change of the read-out against control, counted positive when it falls.

Experiment [1] deals with T1, GDH1 from bovine liver (glutamate dehydrogenase 1) (Bos taurus, UniProt P00366).
T1 construct: gene GLUD1; purified bovine liver GDH (Sigma Aldrich, Type II)
The experiment is described as follows: spectrophotometric NADH oxidation assay ([…] nm), reference inhibitor measured by the authors. The class given is biochemical.

Experiment [2] addresses T1, GDH1 from bovine liver (glutamate dehydrogenase 1). In words: spectrophotometric NADH oxidation assay ([…] nm), Lineweaver-Burk and secondary plots. Type of experiment: biochemical.
Experiment [3] addresses T2, hGDH1 (human glutamate dehydrogenase 1) (Homo sapiens, UniProt P00367).
T2 construct: gene GLUD1; GDH activity in HepG2 cellular extract
In words: GDH activity in HepG2 cell extract (NADH, […] nm). Type of experiment: cell-based. The conditions noted are these: HepG2, read-out: % inhibition at 8 μM %.

T1 sequence (P00366 58-558): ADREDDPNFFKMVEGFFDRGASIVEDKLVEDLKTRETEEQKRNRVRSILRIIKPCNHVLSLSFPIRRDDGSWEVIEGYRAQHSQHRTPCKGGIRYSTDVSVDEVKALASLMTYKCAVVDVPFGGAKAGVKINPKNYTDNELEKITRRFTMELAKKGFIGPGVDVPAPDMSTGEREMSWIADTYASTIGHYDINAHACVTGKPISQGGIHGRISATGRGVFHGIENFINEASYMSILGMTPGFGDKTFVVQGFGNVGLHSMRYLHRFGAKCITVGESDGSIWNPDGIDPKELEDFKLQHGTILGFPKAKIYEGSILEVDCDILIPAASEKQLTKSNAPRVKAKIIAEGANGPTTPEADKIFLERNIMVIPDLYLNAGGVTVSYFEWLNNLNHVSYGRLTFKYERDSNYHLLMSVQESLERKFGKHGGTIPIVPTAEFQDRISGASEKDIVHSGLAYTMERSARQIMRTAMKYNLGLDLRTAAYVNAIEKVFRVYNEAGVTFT
T2 sequence (P00367 54-558): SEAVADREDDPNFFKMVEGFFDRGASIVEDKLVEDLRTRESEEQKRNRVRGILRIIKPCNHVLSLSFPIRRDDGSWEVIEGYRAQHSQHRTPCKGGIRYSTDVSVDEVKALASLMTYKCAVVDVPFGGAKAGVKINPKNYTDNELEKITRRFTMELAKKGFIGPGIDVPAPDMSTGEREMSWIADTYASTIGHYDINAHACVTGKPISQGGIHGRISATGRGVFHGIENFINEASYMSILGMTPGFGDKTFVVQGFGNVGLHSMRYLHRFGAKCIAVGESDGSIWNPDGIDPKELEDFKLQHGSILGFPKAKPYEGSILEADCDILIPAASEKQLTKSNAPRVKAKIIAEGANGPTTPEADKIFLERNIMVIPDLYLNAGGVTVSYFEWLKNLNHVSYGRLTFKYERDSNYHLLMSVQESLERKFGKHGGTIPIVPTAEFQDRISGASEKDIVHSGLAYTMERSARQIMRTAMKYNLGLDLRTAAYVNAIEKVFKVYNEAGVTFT

`O=C(O[C@@H]1Cc2c(O)cc(O)cc2O[C@@H]1c1cc(O)c(O)c(O)c1)c1cc(O)c(O)c(O)c1` [EGCG, Epigallocatechin gallate] came in with an IC50 in experiment [1] of about 2 µM.

In experiment [2], `O=c1c(O)c(-c2ccc(O)c(O)c2)oc2cc(O)cc(O)c12` [quercetin] showed a Ki of 9.2 µM. In experiment [3], the inhibition at 8 µM was about 56%.

For the molecule Permethylated Anigopreissin A [PAA], affinity in experiment [2] was put at a Ki of 10 µM.
